Experimental data reported in ChEMBL document CHEMBL1201862, “PubChem BioAssay data set” (2004).
Calls of active or inactive are those of the source.

How the values were obtained:
[1] = Shn3 3'UTR reporter inhibitors, dose response, cell-based, Clone20 osteoblasts, firefly luciferase, cherry-picked (AID 624132); assay type: functional;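 further: firefly luciferase luminescence from reporter carrying the Shn3 3'UTR in osteoblasts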
Nonstructural protein 1 = Nonstructural protein 1 (Influenza A virus, UniProt Q194T2); assay type: functional, Influenza A virus (A/California/07/2009(H1N1))
[2] = control 3'UTR Renilla luciferase suppression, dose response, counter-screen for Shn3 inhibitor project, cell-based, Clone20-Shn3RL, cherry-picked (AID 624133); assay type: functional
INS1 = test: beta cell apoptosis inhibitors, cytokine rescue, dose response, luminescence, retest (AID 449756); assay type: functional, cell-based; conditions: Rattus norvegicus;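 further: cell death triggered by IL-1 beta plus TNF-alpha plus IFN-gamma mixture; protective hits raise ATP signal compared with cytokine alone wells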
[3] = biological target: Photoreceptor-specific nuclear receptor (Homo sapiens, UniProt Q9Y5X4); assay type: functional, cell-based;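 further: CHO-S cells with Gal4-NCOR and VP16-NR2E3 two-hybrid luciferase reporter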
[4] = Luminescence Cell-Based Dose Retest to Confirm Inhibitors of Cancer Stem Cells. [Related pubchem assays (depositor defined):AID2717, AID2721]; assay type: functional; conditions: Homo sapiens
[5] = HepG2 cell cytotoxicity, dose response, cytotoxicity control for Shn3 inhibitor project, CellTiter-Glo, cherry-picked (AID 624134); assay type: functional, cell-based
[6] = MC4R antagonists, dose response, counter-screen for LGR2 antagonist project, cell-based, plate reader, cherry pick (AID 743444); assay type: functional;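 further: transfected HEK 293 cells stimulated with alpha-MSH peptide; potency of inhibitors of the alpha-MSH evoked signal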
[7] = LGR2 antagonists, dose response, cell-based, HEK293, CRE-luciferase reporter, cherry pick, set 2 (AID 743343); assay type: functional;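 further: transfected cells were stimulated with diluted bursicon conditioned medium after compound addition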
[8] = HepG2 cell cytotoxicity, dose response, cytotoxicity control, plate reader, cherry-pick, antagonist series (AID 743416); assay type: functional, cell-based
[9] = P. falciparum ATP4 D1247Y mutant growth inhibitors, dose response, NITD609-resistant line, SYBR Green, dry powder (AID 1159571); assay type: functional, cell-based;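 further: parasites synchronized at ring stage by sorbitol before testing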
[10] = HepG2 cell cytotoxicity, dose response, cytotoxicity control, plate reader, dry powder samples (AID 1159569); assay type: functional, cell-based;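 further: inhibitor potency with signal falling toward the positive control level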
[11] = P. falciparum Dd2 growth inhibitors, dose response, SYBR Green, dry powder samples (AID 1159566); assay type: functional, cell-based;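 further: potency for growth inhibition with lower SYBR green DNA signal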
[12] = P. falciparum Dd2 growth inhibitors, dose response, SYBR Green, cherry-picked samples (AID 1159567); assay type: functional, cell-based
[13] = P. falciparum 3D7-ScDHODH growth inhibitors, dose response, SYBR Green, dry powder samples (AID 1159570); assay type: functional, cell-based;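 further: parasite growth measured after 72 hours of compound exposure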
[14] = Luminescence Cell-Based Dose Response to Identify Activators of Luciferase Translation or Activity in H4-C Neuroglioblastoma Cells. [Related pubchem assays: 1829 (Project Summary), 1814 (Primary HTS)]; assay type: functional
[15] = Luminescence Cell-Based Dose Confirmation to Identify Activators of 5'UTR Stem-Loop Driven Alpha-Synuclein mRNA Translation in H4 Neuroglioblastoma Cells. [Related pubchem assays: 1829 (Project Summary), 1814 (Primary HTS)]; assay type: functional
[16] = Luminescence Cell-Based Dose Response HTS to Identify Activators of Luciferase Translation or Activity in H4 […] Cells. [Related pubchem assays: 1829 (Project Summary), 1814 (Primary HTS)]; assay type: functional
[17] = Luminescence Cell-Based Dose Response to Identify Activators of 5'UTR Stem-Loop Driven Prion Protein mRNA Translation in H4-C Neuroglioblastoma Cells. [Related pubchem assays: 1829 (Project Summary), 1814 (Primary HTS)]; assay type: functional
H4 = test: Luminescence Cell-Based Dose Response HTS to Identify Activators of 5'UTR Stem-Loop Driven Prion Protein mRNA Translation in H4 Neuroglioblastoma Cells. [Related pubchem assays: 1829 (Project Summary), 1814 (Primary HTS)]; assay type: functional; conditions: Homo sapiens
Prothrombin = Prothrombin (Homo sapiens, UniProt P00734); test: Thrombin 1536 HTS Dose Response Confirmation. [Related pubchem assays: 1046 (Thrombin 1536 HTS; hits were confirmed in this assay)]; assay type: functional
HEK293 = test: inhibitors of LMP1-driven NF-kB reporter, dose response, cell-based, HEK293, luciferase, cherry-pick (AID 588343); assay type: functional; conditions: Homo sapiens
[18] = A549 cell cytotoxicity, dose response, cytotoxicity control, plate reader, cherry-pick, antagonist series (AID 743412); assay type: functional, cell-based
[19] = biological target: T1, Heat shock factor protein 1 (Mus musculus, UniProt P38532); test: inhibition of MG132-induced HSE-luciferase signal, confirmation, cell-based, NIH3T3, luminescence, dose retest (AID 2382); assay type: functional;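 further: NIH3T3 fibroblasts with HSF1-driven luciferase reporter stressed by proteasome inhibitor MG132; luminescence from HSF1-driven luciferase expression after 8 hours of MG132 stress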
T1 sequence (P38532 whole entry): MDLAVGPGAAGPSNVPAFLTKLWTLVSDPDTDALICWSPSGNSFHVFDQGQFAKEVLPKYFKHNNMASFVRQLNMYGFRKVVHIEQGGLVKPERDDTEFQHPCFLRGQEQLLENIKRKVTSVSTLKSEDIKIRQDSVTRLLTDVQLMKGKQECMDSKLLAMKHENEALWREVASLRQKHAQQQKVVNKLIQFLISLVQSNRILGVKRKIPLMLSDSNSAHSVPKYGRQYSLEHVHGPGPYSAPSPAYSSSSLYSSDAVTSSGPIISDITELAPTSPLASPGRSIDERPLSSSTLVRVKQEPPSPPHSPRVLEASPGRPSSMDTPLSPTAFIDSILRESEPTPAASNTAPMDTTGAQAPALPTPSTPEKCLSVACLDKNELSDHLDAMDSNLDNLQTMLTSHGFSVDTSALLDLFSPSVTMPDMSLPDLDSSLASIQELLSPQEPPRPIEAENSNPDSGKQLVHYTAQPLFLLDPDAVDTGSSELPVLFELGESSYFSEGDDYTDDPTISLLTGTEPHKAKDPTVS

Vero = test: cells; assay type: functional; conditions: Chlorocebus sabaeus
cells = assay type: functional, cell-based; conditions: HEK-CNG
Galanin receptor type 3 = biological target: T2, Galanin receptor type 3 (Homo sapiens, UniProt O60755); test: Fluorescence-based cell-based primary high throughput dose response assay to identify antagonists of the Galanin Receptor 3 (GalR3).; assay type: functional
T2 sequence (O60755 whole entry): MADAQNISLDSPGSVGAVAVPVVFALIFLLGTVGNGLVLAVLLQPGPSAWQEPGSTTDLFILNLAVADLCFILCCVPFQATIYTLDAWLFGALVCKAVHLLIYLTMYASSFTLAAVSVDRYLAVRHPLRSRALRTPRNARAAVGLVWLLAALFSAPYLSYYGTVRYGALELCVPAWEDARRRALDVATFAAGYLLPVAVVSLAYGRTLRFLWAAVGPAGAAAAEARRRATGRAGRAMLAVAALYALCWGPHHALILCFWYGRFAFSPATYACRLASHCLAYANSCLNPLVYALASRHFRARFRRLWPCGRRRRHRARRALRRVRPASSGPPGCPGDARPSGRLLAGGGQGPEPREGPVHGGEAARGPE

[20] = biological target: T3, Microphthalmia-associated transcription factor (Homo sapiens, UniProt O75030); test: TRPM1 promoter luciferase signal decrease, dose response, MITF inhibitor project, cell-based, SK-MEL-5, cherry-picked, set 3 (AID 493073); assay type: functional
T3 sequence (O75030 whole entry): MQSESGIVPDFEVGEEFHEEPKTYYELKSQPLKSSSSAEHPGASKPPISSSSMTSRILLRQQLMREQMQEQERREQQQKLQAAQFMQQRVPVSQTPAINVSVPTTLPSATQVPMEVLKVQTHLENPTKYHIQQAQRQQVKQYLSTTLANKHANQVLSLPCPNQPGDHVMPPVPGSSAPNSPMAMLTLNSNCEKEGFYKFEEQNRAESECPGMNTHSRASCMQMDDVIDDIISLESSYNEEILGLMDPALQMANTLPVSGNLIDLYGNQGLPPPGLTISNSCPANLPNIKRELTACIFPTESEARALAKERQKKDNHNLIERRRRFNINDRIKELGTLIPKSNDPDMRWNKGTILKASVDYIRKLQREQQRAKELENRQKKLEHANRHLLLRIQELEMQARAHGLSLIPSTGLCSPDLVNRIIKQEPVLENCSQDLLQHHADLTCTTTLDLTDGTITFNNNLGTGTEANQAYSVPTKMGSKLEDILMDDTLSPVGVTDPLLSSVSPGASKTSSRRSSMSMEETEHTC

A-375 = test: MITF: Counter assay: A375 proliferation Measured in Cell-Based System Using Plate Reader - 2084-03_Inhibitor_Dose_DryPowder_Activity. [Related pubchem assays (depositor defined):AID488944]; assay type: functional; conditions: Homo sapiens
[21] = P. falciparum Dd2 growth inhibitors, dose response, SYBR Green, dry powder samples, set 9 (AID 1159568); assay type: functional, cell-based

Sequence of Photoreceptor-specific nuclear receptor (Q9Y5X4 whole entry, the tested form may be a part): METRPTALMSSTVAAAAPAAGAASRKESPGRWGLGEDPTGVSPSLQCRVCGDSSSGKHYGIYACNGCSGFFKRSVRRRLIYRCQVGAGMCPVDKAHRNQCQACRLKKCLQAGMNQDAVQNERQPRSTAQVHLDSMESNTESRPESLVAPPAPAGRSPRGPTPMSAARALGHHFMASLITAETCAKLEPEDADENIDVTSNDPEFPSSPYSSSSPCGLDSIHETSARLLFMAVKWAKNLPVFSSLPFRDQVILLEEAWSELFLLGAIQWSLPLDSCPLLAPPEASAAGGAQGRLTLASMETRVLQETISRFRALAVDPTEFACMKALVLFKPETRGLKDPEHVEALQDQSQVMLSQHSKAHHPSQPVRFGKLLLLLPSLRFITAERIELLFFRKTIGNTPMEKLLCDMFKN
Sequence of Nonstructural protein 1 (Q194T2 whole entry): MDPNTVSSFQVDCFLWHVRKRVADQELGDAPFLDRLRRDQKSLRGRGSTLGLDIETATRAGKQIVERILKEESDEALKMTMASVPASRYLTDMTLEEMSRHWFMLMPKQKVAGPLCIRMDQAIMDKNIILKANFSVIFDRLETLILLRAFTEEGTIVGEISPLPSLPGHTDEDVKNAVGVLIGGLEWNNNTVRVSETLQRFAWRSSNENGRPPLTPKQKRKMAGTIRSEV

Clc1cc2cccnc2c2ncccc12
AC50 [1]: 4.06 µM (active)
IC50 (Nonstructural protein 1): 3.44 µM (active)
AC50 [2]: 3.94 µM (active)
AC50 (INS1): 6.84 µM (active)
IC50 [3]: 5.53 µM (active)
AC50 [4]: 4.73 µM (active)
AC50 [5]: 5.34 µM (active)

O=C(O)c1cccc(-c2noc(-c3cccc(Cl)c3)n2)c1
AC50 [6]: 7.56 µM (active)
AC50 [7]: 5.67 µM (active)
AC50 [8]: > 52 µM (inactive)

CO[C@@H]1CN(C)C(=O)c2ccc(NC(=O)c3nc4ccccc4s3)cc2OC[C@@H](C)N(Cc2ccccc2)C[C@H]1C
AC50 [9]: 1.08 µM (active)
AC50 [10]: > 100 µM (inactive)
AC50 [11]: 0.829 µM (active)
AC50 [12]: 1.12 µM (active)
AC50 [13]: 1.75 µM (active)

COCCn1c(C)cc(C(=O)COC(=O)c2ccc3ncsc3c2)c1C
EC50 [14]: 0.343 µM (active)
EC50 [15]: 0.364 µM (active)
EC50 [16]: 0.155 µM (active)
EC50 [17]: 1.09 µM (active)
EC50 (H4): 0.132 µM (active)

COc1ccc(C(=O)n2nc(-c3ccco3)nc2N)cc1OC
IC50 (Prothrombin): 2.23 µM (active)

COc1ccc(S(=O)(=O)N2CCC3(CC2)CN(Cc2ccncc2)[C@H](CO)c2[nH]c4cc(OC)ccc4c23)cc1
AC50 [9]: 2.22 µM (active)
AC50 [10]: 28.5 µM (active)
AC50 [11]: 1.72 µM (active)
AC50 [12]: 1.89 µM (active)
AC50 [13]: 2.14 µM (active)

CC(C)(C)c1ccc(Cn2c(=O)cnc3ccccc32)cc1
AC50 (HEK293): 6.93 µM (active)
AC50 [18]: 12.6 µM (active)
AC50 [7]: 38 µM (active)
AC50 [8]: 29.4 µM (active)
EC50 [19]: 2.27 µM (active)

Cc1nn(Cc2ccc(C(=O)Nc3nccs3)cc2)c(C)c1Cl
IC50 (Prothrombin): > 50 µM (not active)
AC50 [4]: 0.747 µM (active)

CCCC#Cc1ccc2c(c1)[C@H]1[C@H](CCN1Cc1ccccc1F)[C@@H](CO)N2
AC50 [9]: 2.37 µM (active)
AC50 [10]: 71.5 µM (active)
AC50 [11]: 2.39 µM (active)
AC50 [12]: 2.78 µM (active)
AC50 [13]: 5.85 µM (active)

CCc1cc(OCCCSc2nc(C)cc(O)n2)ccc1Cl
IC50 [3]: 3.02 µM (active)
CC50 (Vero): 2.36 µM (active)

C=CCC1(CC=C)CCCN1C(=O)c1cc(COc2cncc(Cl)c2)on1
EC50 (cells): > 29.9 µM (inactive)
IC50 (Galanin receptor type 3): > 1.11 µM (active)

COC(=O)c1ccc(Nc2cc(C)nc3ccc(C)cc23)cc1
AC50 [20]: 6.85 µM (active)
AC50 [18]: 4.31 µM (active)
AC50 (A-375): 36.8 µM (active)
AC50 [8]: 13.2 µM (active)

CCCOc1ccc(CSc2nc3ccccc3[nH]2)cc1
EC50 (cells): > 29.9 µM (inactive)
AC50 (INS1): 3.73 µM (active)
IC50 [3]: 4.25 µM (active)
IC50 (Galanin receptor type 3): 2.27 µM (active)

Cc1csc(NC(=O)c2cnc3ccccc3n2)n1
AC50 [6]: 16.9 µM (active)
AC50 [7]: 7.51 µM (active)
AC50 [8]: > 52 µM (inactive)

FC(F)(F)c1ccccc1Cc1c(-c2ccco2)nc2c3ccccc3ccn12
EC50 (cells): > 29.9 µM (inactive)
IC50 (Galanin receptor type 3): 13 µM (inactive)

CC(Sc1nncn1C)C(=O)NCc1ccc2c(c1)OCO2 (centres undefined)
IC50 (Prothrombin): > 50 µM (not active)

CSc1ccc(C(=O)C2CCCN(C(=O)CCc3c(C)nn(C)c3C)C2)cc1 (centres undefined)
EC50 (cells): > 29.9 µM (inactive)
IC50 (Galanin receptor type 3): 1.15 µM (active)

CC1=C(C#N)C(=O)N(C)C(=O)/C1=N/Nc1ccc(S(N)(=O)=O)cc1
IC50 (Prothrombin): > 50 µM (not active)

O=C(Nc1cccc(F)c1)N1CCCCN2[C@H](CO)[C@H](c3ccc(C#Cc4ccccc4)cc3)[C@@H]2C1
AC50 [9]: 0.0557 µM (active)
AC50 [10]: > 100 µM (inactive)
AC50 [11]: 0.0437 µM (active)
AC50 [12]: < 0.3 µM (active)
AC50 [13]: 0.0383 µM (active)

O=C(Cc1ccccc1)N1CC(=O)N2[C@H](CO)[C@H](c3ccc(C#CCc4ccccc4)cc3)[C@H]2C1
AC50 [9]: 1.18 µM (active)
AC50 [21]: 0.354 µM (active)
AC50 [10]: 22.5 µM (active)
AC50 [11]: 0.358 µM (active)
AC50 [12]: 0.918 µM (active)
AC50 [13]: 1.73 µM (active)

Nc1cccc2c1C(=O)N(C(=O)c1ccco1)C2=O
IC50 (Prothrombin): 8.62 µM (active)

Cc1c(N(C)C(=O)C2CCCN2S(=O)(=O)c2ccccc2)c(=O)n(-c2ccccc2)n1C (centres undefined)
IC50 (Prothrombin): > 50 µM (not active)

COCC1CCCN(C(=O)c2cc(COc3ccc4ncccc4c3)on2)C1 (centres undefined)
EC50 (cells): > 29.9 µM (inactive)
IC50 (Galanin receptor type 3): 1.3 µM (active)
